These results are taken from ChEMBL document CHEMBL1151637, “A flavone with antiinflammatory activity from the roots of Rhus undulata” (1984).

Experiment [1] concerns Rattus norvegicus. The experiment is described as follows: Antiinflammatory activity against rat assessed as inhibition of carrageenan-induced edema. In kind it is functional.
For experiment [2], the system named is Rattus norvegicus. The experiment is described as follows: Antiinflammatory activity against rat assessed as inhibition of carrageenan-induced edema at 75 mg/kg. In kind it is functional.

Molecules are shown by their SMILES. Active and inactive are the calls of the source. The rule behind the calls is not given here.

As to `COc1ccc(-c2cc(=O)c3c(OC)c(OC)c(OC)c(OC)c3o2)cc1OC` [NOBILETIN], the ED25 in the experiment with Rattus norvegicus [1] amounted to 20 mg/kg.
For the compound `CCCCC1C(=O)N(c2ccccc2)N(c2ccccc2)C1=O` [PHENYLBUTAZONE], in the experiment with Rattus norvegicus [2], the inhibition in vivo at 75 mg/kg worked out at 81%.
Regarding `C[C@]12CCC(=O)C=C1CC[C@@H]1[C@@H]2[C@@H](O)C[C@@]2(C)[C@H]1CC[C@]2(O)C(=O)COP(=O)(O)O` [HYDROCORTISONE PHOSPHORIC ACID], the ED25 in the experiment with Rattus norvegicus [1] worked out at 13.5 mg/kg.
Turning to `C[C@@H]1O[C@@H](O[C@H]2[C@H](Oc3cc(O)c4c(c3)O[C@H](c3ccc(O)cc3)CC4=O)O[C@H](CO)[C@@H](O)[C@@H]2O)[C@H](O)[C@H](O)[C@H]1O`, the result in the experiment with Rattus norvegicus [1] was inactive.
With `COc1ccc(-c2cc(=O)c3c(O)cc(OC)cc3o2)cc1` [APIGENIN DIMETHYLETHER], in the experiment with Rattus norvegicus [2], the inhibition in vivo at 75 mg/kg turned out to be 25%. The ED25 in the experiment on Rattus norvegicus [1] is 75 mg/kg.
